Patent US8207150B2, “17β-cyano-19-nor-androst-4-ene derivative, its use and medicaments comprising the derivative” (Bayer Pharma AG, priority 2007, dated 2012)
Several values for one entry are separate records, joined by “and”; a condition that tells them apart may be missing. Equal entries are not always repeated. Where two headings read alike, the source gives them in different places.

Experiments:
[1] = molecular target: T1, mineralcorticoid receptor (Homo sapiens, UniProt P08235); assay: MR antagonism, luciferase reporter cell line assay; type: cell-based; conditions: 16 hours incubation, luminescence
T1 sequence (P08235 1-984): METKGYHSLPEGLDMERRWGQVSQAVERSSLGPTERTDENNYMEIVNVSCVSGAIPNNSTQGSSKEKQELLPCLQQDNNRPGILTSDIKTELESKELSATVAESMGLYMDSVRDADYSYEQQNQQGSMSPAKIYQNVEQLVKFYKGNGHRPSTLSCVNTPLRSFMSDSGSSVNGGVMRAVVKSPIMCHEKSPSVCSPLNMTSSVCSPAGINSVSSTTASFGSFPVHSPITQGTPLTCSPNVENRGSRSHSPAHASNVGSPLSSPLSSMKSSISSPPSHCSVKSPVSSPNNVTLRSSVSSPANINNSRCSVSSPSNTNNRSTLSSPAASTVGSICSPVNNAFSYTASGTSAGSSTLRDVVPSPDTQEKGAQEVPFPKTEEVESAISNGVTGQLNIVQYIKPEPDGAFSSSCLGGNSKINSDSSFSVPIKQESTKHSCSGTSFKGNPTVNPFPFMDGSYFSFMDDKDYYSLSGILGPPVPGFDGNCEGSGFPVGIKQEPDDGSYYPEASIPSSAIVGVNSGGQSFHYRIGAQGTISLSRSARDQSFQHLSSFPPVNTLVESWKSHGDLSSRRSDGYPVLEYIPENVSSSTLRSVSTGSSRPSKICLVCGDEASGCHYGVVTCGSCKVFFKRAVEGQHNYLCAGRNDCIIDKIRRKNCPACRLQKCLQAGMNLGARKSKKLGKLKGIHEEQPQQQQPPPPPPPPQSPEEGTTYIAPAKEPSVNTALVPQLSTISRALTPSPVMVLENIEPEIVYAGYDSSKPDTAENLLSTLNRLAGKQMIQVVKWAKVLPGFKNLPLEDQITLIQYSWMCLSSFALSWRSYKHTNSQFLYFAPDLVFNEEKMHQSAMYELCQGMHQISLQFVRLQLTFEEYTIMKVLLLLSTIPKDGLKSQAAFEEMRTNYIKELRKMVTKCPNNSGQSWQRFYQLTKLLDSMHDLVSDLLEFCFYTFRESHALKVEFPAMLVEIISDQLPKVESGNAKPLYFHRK
Experimental: The derivatives according to the invention having the general chemical formula 1 have a very strong gestagenic activity. […] They should therefore have in vivo potassium-retaining, natriuretic (antimeralcorticoid) action. These properties were determined using the test described below:
For the culturing of the cells used for the assay, the culture medium used was DMEM (Dulbecco's Modified Eagle Medium: […] of glucose; PAA, #E15-009) with 10% FCS (Biochrom, S0115, batch #615B), 4 mM L-glutamine, 1% penicillin/streptomycin, 1 mg/ml of G418 and 0.5 μg/ml of puromycin.
Reporter cell lines were grown in a density of 4×10^4 cells per hollow in white, nontransparent tissue culture plates in each case having 96 hollows (PerkinElmer, #P12-106-017) and kept in 6% DCC—FCS (activated carbon-treated serum, for the removal of interfering components contained in the serum). The compounds to be investigated were added eight days later, and the cells were incubated with the compounds for 16 hours. The experiments were carried out in triplicate. At the end of the incubation, the effector-containing medium was removed and replaced by lysis buffer. After luciferase assay substrate (promega, #E1501) had been added, the plates containing the 96 hollows were then introduced into a microplate luminometer (Pherastar, BMG labtech), and the luminescence was measured. The IC50 values were evaluated using software for the calculation of dose-activity relationships.

PR = molecular target: T2, PR (Rattus norvegicus, UniProt Q63449); assay: maintenance of pregnancy test on the rat; type: in vivo; conditions: ovarectomized pregnant rats; for PR in vivo ED50: pregnancy-maintaining dose, s.c. once daily with oestrone 5 μg/kg/day
T2 construct: The maintenance of pregnancy test on ovarectomized rats serves for the determination of the peripheral gestagenic activity of a compound; from tissue; host or cells: whole animal: pregnant, ovariectomized rats
T2 sequence (Q63449 1-923): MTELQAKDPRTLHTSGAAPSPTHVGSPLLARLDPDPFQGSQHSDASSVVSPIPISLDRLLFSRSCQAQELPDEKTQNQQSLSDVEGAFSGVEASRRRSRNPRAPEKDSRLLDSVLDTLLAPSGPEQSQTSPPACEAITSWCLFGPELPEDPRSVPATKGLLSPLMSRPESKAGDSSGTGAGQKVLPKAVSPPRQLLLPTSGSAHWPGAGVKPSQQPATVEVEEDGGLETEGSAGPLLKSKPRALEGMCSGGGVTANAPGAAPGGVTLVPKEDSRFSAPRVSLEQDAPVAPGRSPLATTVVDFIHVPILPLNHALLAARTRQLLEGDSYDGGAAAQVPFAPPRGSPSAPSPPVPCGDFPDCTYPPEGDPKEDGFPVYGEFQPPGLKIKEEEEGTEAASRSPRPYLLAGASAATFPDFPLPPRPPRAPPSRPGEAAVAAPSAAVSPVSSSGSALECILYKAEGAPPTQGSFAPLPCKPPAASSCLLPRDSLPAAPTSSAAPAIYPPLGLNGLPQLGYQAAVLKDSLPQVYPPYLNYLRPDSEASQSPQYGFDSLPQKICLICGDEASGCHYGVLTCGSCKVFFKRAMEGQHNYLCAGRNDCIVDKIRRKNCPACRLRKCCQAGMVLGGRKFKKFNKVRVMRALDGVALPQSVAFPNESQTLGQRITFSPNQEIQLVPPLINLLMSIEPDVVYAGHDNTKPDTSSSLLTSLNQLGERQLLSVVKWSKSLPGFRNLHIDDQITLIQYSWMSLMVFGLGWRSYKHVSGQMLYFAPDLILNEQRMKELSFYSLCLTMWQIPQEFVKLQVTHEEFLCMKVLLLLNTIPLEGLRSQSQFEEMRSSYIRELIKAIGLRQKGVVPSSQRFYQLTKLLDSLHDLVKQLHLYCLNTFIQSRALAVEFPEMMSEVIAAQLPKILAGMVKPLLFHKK
From the text: Carrying out the maintenance of pregnancy test on the rat:
In pregnant rats, the removal of the corpora lutea or oophorectomy induces an abortion. By means of the exogenous administration of progestins (gestagens) in combination with a suitable dose of an oestrogen, the maintenance of pregnancy is possible. The maintenance of pregnancy test on ovarectomized rats serves for the determination of the peripheral gestagenic activity of a compound.
Rats were paired overnight during proestrus. Pairing was checked on the morning of the following day by the appraisal of a vaginal smear. The presence of the sperm was evaluated here as day 1 of a commencing pregnancy. On day 8 of the pregnancy, the animals were ovarectomized under ether anaesthesia. The treatment with test compound and exogenous oestrogen (oestrone, 5 μg/kg/day) was carried out subcutaneously once daily from day 8 to day 15 or day 21 of the pregnancy. The first administration on day 8 was carried out two hours before oophorectomy. Intact control animals were given exclusively vehicle.
At the end of the experiment (day 15 or day 21), the animals were sacrificed under a CO2 atmosphere, and live foetuses (foetuses having a beating heart) and implantation sites (early resorptions and dead foetuses including autolysis and atrophic placentas) were counted in both uterine horns. On day 22, it was moreover possible to examine foetuses for malformations. In uteri without foetuses or implantation sites, the number of nidation sites was determined by staining with 10% strength ammonium sulphide solution. The maintenance of pregnancy rate was calculated as the quotient of the number of living foetuses and the total number of nidation sites (both resorbed and dead foetuses and nidation sites). For drospirenone, this value is 3.5 mg/kg/day.

[2] = MR Antagonism IC50, reporter cell lines
[3] = reporter cell lines, read-out: MR Antagonism IC50

| pregnancy-maintaining dose (ED50) (PR; subcutaneously once daily with oestrone 5 μg/kg/day) [mg/kg/day] | Compound | IC50 [1, 2] | PR in vivo ED50 (PR) | MR Antagonism activity [% of the maximum effect] ([1]; reporter cell lines) | IC50 [1, 3] [nM] |
| --- | --- | --- | --- | --- | --- |
| – | C[C@@H]1CC2=CC(=O)CC[C@@H]2[C@H]2CC[C@@]3(C)[C@@H]([C@@H]4C[C@@H]4[C@@H]3C#N)[C@@H]21 (single isomer, unassigned) [17β-Cyano-15β,16β-methylene-7α-methyl-19-nor-androst-4-en-3-one] | 8.3 nM and 10.3 nM | – | – | – |
| – | CC[C@]1(C#N)[C@H]2C[C@H]2[C@H]2[C@@H]3[C@@H]4C[C@@H]4C4=CC(=O)CC[C@@H]4[C@H]3CC[C@@]21C (single isomer, unassigned) [17β-cyano-17α-ethyl-6α,7α-methylene-15β,16β-methylene-19-nor-androst-4-en-3-one] | 90.2 nM | 0.22 mg/kg/d s.c. | – | – |
| – | C[C@@H]1CC2=CC(=O)CC[C@@H]2[C@H]2CC[C@@]3(C)[C@@H](CC[C@]3(C)C#N)[C@@H]21 [17β-Cyano-7α,17α-bismethyl-19-nor-androst-4-en-3-one] | 31 nM | 1 .0 mg/kg/d s.c. | 96.20 % of the maximum effect | – |
| – | C[C@@H]1CC2=CC(=O)CC[C@@H]2[C@H]2CC[C@]3(C)[C@@H](C#N)CC[C@H]3[C@@H]21 [17β-Cyano-7α-methyl-19-nor-androst-4-en-3-one] | – | 0.33 mg/kg/d s.c. | 108.02 % of the maximum effect | 8.2 |
| – | C[C@]12CC[C@H]3[C@@H](CCC4=CC(=O)CC[C@@H]43)[C@@H]1[C@H]1C[C@H]1[C@@H]2C#N [17β-Cyano-15α,16α-methylene-19-nor-androst-4-en-3-one] | – | 0.8 mg/kg/d s.c. | 93.01 % of the maximum effect | 16 |
| – | C[C@]12CC[C@H]3[C@@H](CCC4=CC(=O)CC[C@@H]43)[C@@H]1[C@@H]1C[C@@H]1[C@@H]2C#N [17β-Cyano-15β,16β-methylene-19-nor-androst-4-en-3-one] | – | 0.84 mg/kg/d s.c. | 95.57 % of the maximum effect | 4.5 |
| – | C[C@]12CC[C@H]3[C@@H](C=CC4=CC(=O)CC[C@@H]43)[C@@H]1[C@@H]1C[C@@H]1[C@@H]2C#N [17β-Cyano-15β,16β-methylene-19-nor-androsta-4,6-dien-3-one] | – | 3.3 mg/kg/d s.c. | 108.51 % of the maximum effect | 15 |
| – | CC[C@]1(C#N)[C@H]2C[C@H]2[C@H]2[C@@H]3CCC4=CC(=O)CC[C@@H]4[C@H]3CC[C@@]21C [17β-Cyano-17α-ethyl-15β,16β-methylene-19-nor-androst-4-en-3-one] | – | 1.9 mg/kg/d s.c. | 106.4 % of the maximum effect | 440 |
| – | C[C@]1(C#N)[C@H]2C[C@H]2[C@H]2[C@@H]3CCC4=CC(=O)CC[C@@H]4[C@H]3CC[C@@]21C [17β-Cyano-17α-methyl-15β,16β-methylene-19-nor-androst-4-en-3-one] | – | 0.8 mg/kg/d s.c. | 96.00 % of the maximum effect | 29 |
| – | C[C@]1(C#N)[C@H]2C[C@H]2[C@H]2[C@@H]3C=CC4=CC(=O)CC[C@@H]4[C@H]3CC[C@@]21C [17β-Cyano-17α-methyl-15β,16β-methylene-19-nor-androsta-4,6-dien-3-one] | – | 2.1 mg/kg/d s.c. | 114 % of the maximum effect | 190 |
| 3.5 | C[C@]12CCC(=O)C=C1[C@@H]1C[C@@H]1[C@H]1[C@@H]3[C@@H]4C[C@@H]4[C@@]4(CCC(=O)O4)[C@@]3(C)CC[C@@H]12 [drospirenone, 6β,7β-15β,16β-dimethylene-3-oxo-17-pregn-4-ene-21,17β-carbolactone, reference compound] | – | – | – | – |
